Laboratory results reported in patent publication US11066414B2, “Cot modulators and methods of use thereof” (Gilead Sciences, Inc., priority 2015, dated 2021).

Target: Human Cot (Homo sapiens (Human), UniProt P41279)
Experiment: High Throughput Cot Biochemical Assay
Conditions: IC50 HTRF, Cot HTRF (TR-FRET KinEASE) biochemical assay, 400 μM ATP

Chain of Human Cot (P41279 30-397): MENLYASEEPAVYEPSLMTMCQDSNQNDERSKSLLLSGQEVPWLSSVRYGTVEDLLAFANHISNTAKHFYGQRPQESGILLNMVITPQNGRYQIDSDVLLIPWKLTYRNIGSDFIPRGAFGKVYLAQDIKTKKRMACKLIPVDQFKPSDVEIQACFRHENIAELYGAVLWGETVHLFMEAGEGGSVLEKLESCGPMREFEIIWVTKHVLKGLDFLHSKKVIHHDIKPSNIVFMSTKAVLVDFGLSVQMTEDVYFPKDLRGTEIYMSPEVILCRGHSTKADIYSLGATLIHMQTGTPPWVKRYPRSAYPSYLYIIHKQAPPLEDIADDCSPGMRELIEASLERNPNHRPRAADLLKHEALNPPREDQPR

IC50 [nM] | Compound
7 | C[C@@H](CF)n1cc([C@@H](Nc2cc(Cl)c3ncc(C#N)c(NCC(C)(C)C)c3c2)c2cccc3ncccc23)nn1 [Example 803, 8-chloro-6-(((S)-(1-((S)-1-fluoropropan-2-yl)-1H-1,2,3-triazol-4-yl)(quinolin-5-yl)methyl)amino)-4-(neopentylamino)quinoline-3-carbonitrile]
2 | Cc1nc(F)ccc1[C@H](Nc1cc(C#N)c2ncc(C#N)c(NCC(C)(C)C)c2c1)c1cn(C(CF)CF)nn1 [Example 869, (S)-6-(((1-(1,3-difluoropropan-2-yl)-1H-1,2,3-triazol-4-yl)(6-fluoro-2-methylpyridin-3-yl)methyl)amino)-4-(neopentylamino)quinoline-3,8-dicarbonitrile]
2 | CC(C)(C)CNc1c(C#N)cnc2c(C#N)cc(N[C@H](c3cn(C4(C(F)(F)F)CC4)nn3)c3csc4cnccc34)cc12 [Example 855, (S)-4-(neopentylamino)-6-((thieno[2,3-c]pyridin-3-yl(1-(1-(trifluoro-methyl)cyclopropyl)-1H-1,2,3-triazol-4-yl)methyl)-amino)quinoline-3,8-dicarbonitrile]
4 | Cc1nc(F)ccc1[C@H](Nc1cc(C#N)c2ncc(C#N)c(NCC(C)(C)C)c2c1)c1nnn(C)c1F [Example 906, (S)-6-(((5-fluoro-1-methyl-1H-1,2,3-triazol-4-yl)(6-fluoro-2-methylpyridin-3-yl)methyl)amino)-4-(neopentylamino)quinoline-3,8-dicarbonitrile]

Same assay, conditions: IC50 HTRF, Cot HTRF (TR-FRET) biochemical assay

IC50 [nM] | Compound
18 | N#Cc1cnc2c(Cl)cc(N[C@H](c3cn(C4CCNCC4)nn3)c3sccc3Cl)cc2c1Nc1ccc(F)c(Cl)c1 [Example 387, (R)-8-chloro-4-((3-chloro-4-fluoro-phenyl)amino)-6-(((3-chlorothiophen-2-yl)(1-(piperidin-4-yl)-1H-1,2,3-triazol-4-yl)methyl)amino)quinoline-3-carbonitrile]
3 | Cn1ncc2c([C@H](Nc3cc(Cl)c4ncc(C#N)c(NCC(C)(C)C)c4c3)c3cn(C4CC4)nn3)cccc21 [Example 423, (S)-8-chloro-6-(((1-cyclopropyl-1H-1,2,3-triazol-4-yl)(1-methyl-1H-indazol-4-yl)methyl)amino)-4-(neopentylamino)-quinoline-3-carbonitrile]
2 | CC(C)(C)CNc1c(C#N)cnc2c(C#N)cc(N[C@H](c3cn(C4(C(F)(F)F)CC4)nn3)c3cccc4ccncc34)cc12 [Example 535, (S)-6-((isoquinolin-8-yl(1-(1-(trifluoro-methyl)cyclopropyl)-1H-1,2,3-triazol-4-yl)methyl)amino)-4-(neopentylamino)-quinoline-3,8-dicarbonitrile]
4 | CC(C)(C)CNc1c(C#N)cnc2c(Cl)cc(N[C@H](c3cn(C4(CO)CC4)nn3)c3cccc4ncsc34)cc12 [Example 458, (S)-6-((benzo[d]thiazol-7-yl(1-(1-(hydroxymethyl)cyclopropyl)-1H-1,2,3-triazol-4-yl)methyl)amino)-8-chloro-4-(neopentylamino)quinoline-3-carbonitrile]
38 | CCN1CCC(n2cc([C@@H](Nc3cc(Cl)c4ncc(C#N)c(Nc5ccc(F)c(Cl)c5)c4c3)c3ccc(C(F)(F)F)s3)nn2)CC1 [Example 365, (R)-8-chloro-4-((3-chloro-4-fluorophenyl)amino)-6-(((1-(1-ethylpiperidin-4-yl)-1H-1,2,3-triazol-4-yl)(5-(trifluoromethyl)thiophen-2-yl)methyl)amino)quinoline-3-carbonitrile]
19 | CCN1CC[C@@H](n2cc(C(Nc3cc(Cl)c4ncc(C#N)c(Nc5ccc(F)c(Cl)c5)c4c3)c3cccnc3)nn2)C1 (stereo partly drawn) [Example 402, 8-chloro-4-((3-chloro-4-fluoro-phenyl)amino)-6-(((1-((R)-1-ethylpyrrolidin-3-yl)-1H-1,2,3-triazol-4-yl)(pyridin-3-yl)methyl)-amino)quinoline-3-carbonitrile]
2 | Cn1ccc2c([C@H](Nc3cc(Cl)c4ncc(C#N)c(NCC(C)(C)C(F)(F)F)c4c3)c3cn(C4(C5CC5)CC4)nn3)cccc2c1=O [Example 783, (S)-6-(((1-([1,1′-bi(cyclopropan)]-1-yl)-1H-1,2,3-triazol-4-yl)(2-methyl-1-oxo-1,2-dihydroisoquinolin-5-yl)methyl)amino)-8-chloro-4-((3,3,3-trifluoro-2,2-dimethylpropyl)amino)quinoline-3-carbonitrile]
2 | N#Cc1cnc2c(Cl)cc(N[C@@H](c3cccnc3)c3cn(CCO)nn3)cc2c1Nc1ccc(F)c(Cl)c1 [Example 336, (S)-8-chloro-4-((3-chloro-4-fluoro-phenyl)amino)-6-(((1-(2-hydroxyethyl)-1H-1,2,3-triazol-4-yl)(pyridin-3-yl)methyl)amino)quinoline-3-carbonitrile]
153 | CC(C)(C)OC(=O)N1CCC(n2cc([C@@H](Nc3cc(Cl)c4ncc(C#N)c(Nc5ccc(F)c(Cl)c5)c4c3)c3cncs3)nn2)CC1 [Example 384, tert-butyl (R)-4-(4-(((8-chloro-4-((3-chloro-4-fluorophenyl)amino)-3-cyanoquinolin-6-yl)amino)(thiazol-5-yl)methyl)-1H-1,2,3-triazol-1-yl)piperidine-1-carboxylate]
2 | [2H]C([2H])(Nc1c(C#N)cnc2c(Cl)cc(N[C@@]([2H])(c3ccc(F)nc3)c3cn(C4CC4)nn3)cc12)C(C)(C)C [Example 112, (S)-8-chloro-6-(((1-cyclopropyl-1H-1,2,3-triazol-4-yl)(6-fluoropyridin-3-yl)methyl-d)amino)-4-((2,2-dimethylpropyl-1,1-d2)amino)quinoline-3-carbonitrile]
147 | CC(C)(C)OC(=O)N1CCC(n2cc([C@@H](Nc3cc(Cl)c4ncc(C#N)c(Nc5ccc(F)c(Cl)c5)c4c3)c3ccsc3)nn2)CC1 [Example 394, tert-butyl (S)-4-(4-(((8-chloro-4-((3-chloro-4-fluorophenyl)amino)-3-cyanoquinolin-6-yl)amino)(thiophen-3-yl)methyl)-1H-1,2,3-triazol-1-yl)piperidine-1-carboxylate]
4 | Cc1nc(F)ccc1[C@H](Nc1cc(Cl)c2ncc(C#N)c(NCC(C)(C)C)c2c1)c1nnn(C2CC2)c1C#N [Example 686, (S)-8-chloro-6-(((5-cyano-1-cyclopropyl-1H-1,2,3-triazol-4-yl)(6-fluoro-2-methylpyridin-3-yl)methyl)amino)-4-(neopentylamino)quinoline-3-carbonitrile]
2 | Cc1nc(F)ccc1[C@H](Nc1cc(C#N)c2ncc(C#N)c(NCC(C)(C)C)c2c1)c1cn(C23CC(C2)C3)nn1 [Example 649, (S)-6-(((1-(bicyclo[1.1.1]pentan-1-yl)-1H-1,2,3-triazol-4-yl)(6-fluoro-2-methylpyridin-3-yl)methyl)amino)-4-(neopentylamino)quinoline-3,8-dicarbonitrile]
3 | CC1(n2cc([C@@H](Nc3cc(Cl)c4ncc(C#N)c(NCC(C)(C)C(F)(F)F)c4c3)c3cccc4ncccc34)nn2)CC1 [Example 797, (S)-8-chloro-6-(((1-(1-methylcyclopropyl)-1H-1,2,3-triazol-4-yl)(quinolin-5-yl)methyl)amino)-4-((3,3,3-trifluoro-2,2-dimethylpropyl)amino)quinoline-3-carbonitrile]
43 | CCN1CCC(n2cc(C(Nc3cc(Cl)c4ncc(C#N)c(Nc5ccc(F)c(Cl)c5)c4c3)c3cn(C)nn3)nn2)CC1 (stereo not shown) [Example 396, 8-chloro-4-((3-chloro-4-fluoro-phenyl)amino)-6-(((1-(1-ethyl-piperidin-4-yl)-1H-1,2,3-triazol-4-yl)(1-methyl-1H-1,2,3-triazol-4-yl)methyl)amino)quinoline-3-carbonitrile]

Same assay, conditions: read-out: IC50 HTRF; Cot HTRF (TR-FRET) biochemical assay

IC50 [nM] | Compound
10 | Cc1ncsc1[C@H](Nc1cc(Cl)c2ncc(C#N)c(NCC(C)(C)C)c2c1)c1cn(C2(C(F)(F)F)CC2)nn1 [Example 701, (R)-8-chloro-6-(((4-methylthiazol-5-yl)(1-(1-(trifluoromethyl)cyclopropyl)-1H-1,2,3-triazol-4-yl)methyl)airiino)-4-(neopentylamino)quinoline-3-carbonitrile]
32 | CC(C)n1cc([C@@H](Nc2cc(Cl)c3ncc(C#N)c(Nc4ccc(F)c(Cl)c4)c3c2)c2cc(Br)cnc2Cl)nn1 [Example 293, (S)-6-(((5-brorno-2-chloropyridin-3-yl)(1-isopropyl-1H-1,2,3-triazol-4-yl)methyl)amino)-8-chloro-4-((3-chloro-4-fluorophenyl)-amino)quinoline-3-carbonitrile]
20 | CC(C)(C)N1CCC(n2cc([C@@H](Nc3cc(Cl)c4ncc(C#N)c(NC5CCCCC5)c4c3)c3cccnc3)nn2)CC1 [Example 287, (S)-6-(((1-(1-(tert-butyl)piperidin-4-yl)-1H-1,2,3-triazol-4-yl)(pyridin-3-yl)methyl)amino)-8-chloro-4-(cyclohexylamino)quinoline-3-carbonitrile]
58 | Cn1cc(C(Nc2cc(Cl)c3ncc(C#N)c(Nc4ccc(F)c(Cl)c4)c3c2)c2cn(C3CCN(C(C)(C)C)CC3)nn2)nn1 (stereo not shown) [Example 399, 6-(((1-(1-(tert-butyl)piperidin-4-yl)-1H-1,2,3-triazol-4-yl)(1-methyl-1H-l, 2,3-triazol-4-yl)methyl)amino)-8-chloro-4-((3-chloro-4-fluorophenyl)-amino)quinoline-3-carbonitrile]
2 | Cc1nc(F)ccc1[C@H](Nc1cc(Cl)c2ncc(C#N)c(NCC(C)(C)C)c2c1)c1cn(C(F)(F)CO)nn1 [Example 584, (S)-8-chloro-6-(((1-(i, 1-difluoro-2-hydroxyethyl)-1H-1,2,3-triazol-4-yl)(6-fluoro-2-methylpyridin-3-yl)methyl)amino)-4-(neopentylamino)quinoline-3-carbonitrile]
65 | N#Cc1csc([C@H](Nc2cc(Cl)c3ncc(C#N)c(Nc4ccc(F)c(Cl)c4)c3c2)c2cn(CCN3CCOCC3)nn2)c1 [Example 332, (R)-8-chloro-4-((3-chloro-4-fluorophenyl)amino)-6-(((4-cyanothiophen-2-yl)(1-(2-morpho-linoethyl)-1H-1,2,3-triazol-4-yl)methyl)amino)quinoline-3-carbonitrile]
